The results in this text go back to ChEMBL document CHEMBL5604061, “ASAP - WNV NS2B-NS3 protease fluorescence dose response” (2024).

Each structure is given as a SMILES string. pIC50: −log10 of the molar value. Values joined by “and” are separate entries in the source; they are usually repeats but may differ in a detail not shown here. Identical values can stand only once. Bounds are passed on as bounds.

As a reminder, the pIC50 is the negative decadic logarithm of the IC50, by convention in mol/L. Higher therefore signals a low IC50.

The experiment concerns the target T1, NS3 (West Nile virus, UniProt K4FQI5).
T1 sequence (K4FQI5 whole entry): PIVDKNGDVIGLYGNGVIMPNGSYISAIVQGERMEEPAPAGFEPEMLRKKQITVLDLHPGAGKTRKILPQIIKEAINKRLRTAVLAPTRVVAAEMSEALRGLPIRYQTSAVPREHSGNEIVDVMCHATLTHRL
Nature of the experiment: Functional biochemical assay to identify treatments for viral infectious disease that targets West Nile NS2B-NS3 protease. Utilizing a direct enzyme activity measurement method, reading the fluorescence intensity is used to characterize the relative potency of inhibitors as IC50. On the set-up: species or system NY-99.
In turn, `O=C1c2c(O)ccc([N+](=O)[O-])c2C(=O)c2c([N+](=O)[O-])ccc(O)c21` gave a pIC50 of less than 4.00.
Next, `N=C(N)NCCC[C@H](NC(=O)[C@H](Cc1ccc(CN)cc1)NC(=O)c1ccccc1)B(O)O`: 7.19 and 6.66; `CCCCCC(=O)N[C@H](C(=O)NCc1cccc(CN)c1)c1ccc(OCc2ccccc2)cc1`: 4.14; `CCCCCC(=O)N[C@H](C(=O)Nc1ccc2[nH]ncc2c1)c1ccc(OCc2ccccc2)cc1`: less than 4.00.
The molecule `CCCCCC(=O)N[C@H](C(=O)Nc1ccc(C(N)=O)cc1)c1ccc(OCc2ccccc2)cc1` gave a pIC50 of less than 4.00.
The molecule `NCc1ccc(-c2ncc(OCC3CCNCC3)nc2-c2ccc(-c3ccoc3)cc2)cc1` gave a pIC50 of 4.01.
In turn, `CCCC[C@H](NC(C)=O)C(=O)N[C@H](C(=O)NCc1ccc(C(N)=O)cc1)c1ccc(OCc2ccccc2)cc1` gave a pIC50 of less than 4.00.
As for `NCc1ccc(-c2ncc(OCC3CCNCC3)nc2-c2ccc(C3CCOCC3)cc2)cc1`, the pIC50 is less than 4.00.
Next, `CCCCCC(=O)N[C@H](C(=O)N1CCCCC1)c1ccc(OCc2ccccc2)cc1`: less than 4.00; `O=C(Nc1ccc2c(c1)B(O)OC2)c1cccc(OCc2c(Cl)cccc2Cl)c1`: less than 4.00.
Turning to `O=C(Nc1cc(Cl)cc(C(=O)Nc2ccc3c(c2)CNC3)c1)OCc1ccccc1`, the pIC50 is 4.75 and 4.31 and 4.60.
Next, `N=C(N)NCCc1ccccc1B(O)O`: less than 4.00.
Next, `O=C(Nc1cc(Cl)cc([C@H](C#CCO)Nc2cccc(-c3nn[nH]n3)c2)c1)OCc1ccccc1`: 4.47; `N=C(N)NCCc1ccc(OC(=O)Nc2ccccc2)cc1`: less than 4.00.
Next, `NCc1cccc([C@H]2C[C@@H]2c2cc(Cl)cc(NC(=O)OCc3ccccc3)c2)c1`: 4.73; `N#C[C@H](Nc1cccc(-c2nn[nH]n2)c1)c1cc(Cl)cc(NC(=O)OCc2ccccc2)c1`: 4.54.
The molecule `O=C(NS(=O)(=O)C1CC1)c1cc(Cl)ccc1NS(=O)(=O)c1ccc(Oc2ccccc2Cl)cc1` showed a pIC50 of 4.12.
For the molecule `NCc1cccc(NC(=O)C[C@@H](NC(=O)OCc2ccccc2)c2ccc(OCc3ccccc3)cc2)c1`, the pIC50 was 5.21.
On to `NCc1cccc(NC(=O)[C@@H](NC(=O)OCc2ccccc2)c2ccc(OCc3ccccc3)cc2)c1`, for which the pIC50 is 5.16.
Next, `O=C(Nc1cc(Cl)cc(C(=O)Nc2cccc([C@H]3C[C@H]3C(=O)O)c2)c1)OCc1ccccc1`: 4.09.
`NCc1cccc(NC(=O)C[C@H](NC(=O)OCc2ccccc2)c2ccc(OCc3ccccc3)c(Br)c2)c1` had a pIC50 of 5.06.
`NCc1cccc(NC(=O)c2cc(Cl)cc(CN)c2)c1` had a pIC50 of 5.01.
The same measure for `CCn1c(=O)c(N2CC[C@@H](CO)C2)nc2ccccc21`: less than 4.00; for `NCc1cccc(NC(=O)[C@H](NC(=O)OCc2ccccc2)c2ccc(Br)c(Cl)c2)c1`: 5.18; for `COc1cc(Cc2c(-c3ccc(F)cc3)noc2C)nc(N2CCNCC2)n1`: 4.17.
Next, `c1ccc2c(CN3CCC(c4cscn4)CC3)c[nH]c2c1`: less than 4.00; `N=C(N)Nc1ccc(NC(=O)Oc2ccccc2)cc1`: less than 4.00; `N=C(N)Nc1ccc(OC(=O)Nc2ccccc2)cc1`: less than 4.00.
The same measure for `CCOc1cccc(-c2ccc(S(=O)(=O)Nc3ccc(Cl)cc3C(=O)O)cc2)c1`: 4.90; for `NCCc1ccc(NC(=O)c2cc(Cl)cc(NC(=O)OCc3ccccc3)c2)cc1`: 4.80.
On to `O=C(O)c1cc(Oc2ccc(F)cc2)c(F)cc1NS(=O)(=O)c1ccc(Oc2ccccc2Cl)cc1`, for which the pIC50 is 5.47.
The same measure for `NCCc1cccc(NC(=O)c2cc(Cl)cc(NC(=O)OCc3ccccc3)c2)c1`: 4.63; for `c1ccc2sc(C3CCN(Cc4c[nH]c5ccccc45)CC3)nc2c1`: less than 4.00; for `N=C(N)NCCc1ccc(NC(=O)Oc2ccccc2)cc1`: 4.14.
The molecule `C=CC[C@H](Nc1cc(Cl)cc(NC(=O)OCc2ccccc2)c1)c1cccc(-c2nn[nH]n2)c1` gave a pIC50 of 4.84.
The molecule `CC(C)CNC(=O)c1cc(Cl)c(F)cc1NS(=O)(=O)c1ccc(Oc2ccccc2Cl)cc1` showed a pIC50 of 4.60.
As for `CC(C)CNC(=O)c1cc(Cl)ccc1NS(=O)(=O)c1ccc(Oc2ccccc2Cl)cc1`, the pIC50 is less than 4.00.
In turn, `NCc1cccc(CNC(=O)[C@H](NC(=O)OCc2ccccc2)c2ccc(OCc3ccccc3)cc2)c1` gave a pIC50 of 4.88.
Next, `C[C@@H](Oc1ccc(S(=O)(=O)Nc2ccc(Cl)cc2C(=O)O)cc1)c1ccccc1F`: 4.70.
`O=C(O)c1cc2c(cc1NS(=O)(=O)c1ccc(Oc3ccccc3Cl)cc1)CCC2` gave a pIC50 of 4.78.
Next, `CNC(=O)[C@H](Nc1cc(Cl)cc(NC(=O)OCc2ccccc2)c1)c1cccc(-c2nn[nH]n2)c1`: less than 4.00; `CS(=O)(=O)NC(=O)c1cc(Cl)ccc1NS(=O)(=O)c1ccc(Oc2ccccc2Cl)cc1`: 4.13.
The same measure for `NCc1cccc(NC(=O)c2cc(Cl)cc(NC(=O)OCc3ccccc3)c2)c1`: 4.64; for `c1cc(C2CCN(Cc3c[nH]c4ccccc34)CC2)c2ccncc2c1`: less than 4.00.
The same measure for `CNC(=O)[C@H](Nc1cccc(CN)c1)c1cc(Cl)cc(NC(=O)OCc2ccccc2)c1`: 5.72; for `O=C(NCC(F)(F)F)c1cc(Cl)c(F)cc1NS(=O)(=O)c1ccc(Oc2ccccc2Cl)cc1`: 5.03.
As to `c1ccc2c(CN3CCC(c4c[nH]c5cccnc45)CC3)c[nH]c2c1`, the pIC50 is less than 4.00.
As to `O=C(O)c1cc(Cl)c(F)cc1S(=O)(=O)Nc1ccc(Oc2ccccc2Cl)cc1`, the pIC50 was 4.49.
Next, `NCc1cccc(NC(=O)[C@H]2[C@H]3CCCCC[C@H]3[C@H]2NC(=O)OCc2ccccc2)c1`: 4.33.
Next, `CCc1cc(C(=O)Nc2cccc(-n3nn[nH]c3=O)c2)sc1-c1ccc(Cl)cc1`: 4.70; `CCn1c(=O)c(N2C[C@H]3CCS(=O)(=O)[C@H]3C2)nc2ccccc21`: less than 4.00; `Cc1cc(-c2ccc([C@@H](NC(=O)OCc3ccccc3)C(=O)Nc3cccc(CN)c3)cc2)cs1`: 5.47.
Next, `O=C(O)c1cc(Cl)ccc1NS(=O)(=O)c1ccc(-c2ccc(F)cc2)cc1`: 4.53; `N=C(N)NCCc1cccc(B(O)O)c1`: less than 4.00.
As to `N=C(N)NCc1ccc(NC(=O)Oc2ccccc2)cc1`, the pIC50 is less than 4.00.
The same measure for `N=C(N)NCc1ccc(OC(=O)Nc2ccccc2)cc1`: less than 4.00; for `CNC(=O)c1cc(Cl)c(F)cc1NS(=O)(=O)c1ccc(Oc2ccccc2Cl)cc1`: 4.51.
The same measure for `NCc1cccc(NC(=O)[C@H](NC(=O)OCc2ccccc2)C2CCC(c3ccccc3)CC2)c1` (some centres undefined): 5.08; for `Cc1ccc(NC(=O)c2cc(Cl)cc(NC(=O)OCc3ccccc3)c2)cc1CN`: 4.22.
The same measure for `NS(=O)(=O)c1ccc(C2CCN(Cc3c[nH]c4ccccc34)CC2)cc1`: less than 4.00.
The molecule `Cc1[nH]c2ccccc2c1CN1CCC(c2c[nH]c3ncccc23)CC1` had a negative logarithm of the IC50 (pIC50) of less than 4.00.
`Cc1[nH]c2ccccc2c1CN1CCC(c2nc3ccccc3s2)CC1` showed a pIC50 of less than 4.00.
The same measure for `O=C(O)c1cc(Cl)ccc1S(=O)(=O)NC1CCN(c2nc(C3CC3)cc(C(F)(F)F)n2)CC1`: 4.31.
Next, `O=C(Nc1ccc(F)nc1)Oc1ccccc1`: less than 4.00.
